This note sets out measurements from EP4799617A1, “PHARMACEUTICAL COMPOSITION HAVING JAK INHIBITORY EFFECT” (Orxes Chinese Medicine (Shanghai) Co., Ltd., priority 2024, dated 2025).

Test [1] concerns mice with cyclophosphamide-induced alopecia areata. The test is described as follows: Hair length (vernier caliper) and hair weight (balance) after the final administration. The class given is in vivo. Conditions: gavage once daily, after final administration (Day 28); for Hair length: CP-induced alopecia areata mice; for Hair weight: regrown hair of depilated area. As to the method: (§1) 60 male C57/BL-6 mice aged 6-8 weeks were evenly divided into 6 groups with 10 mice per group. These groups were: a control group, a model group, a CE (15 mg/kg) group, a CE (30 mg/kg) group, a BT (1 mg/kg) group, and a CE+BT (15+0.5 mg/kg) group. After 1 week of normal feeding, the dorsal hair of the mice was shaved using a depilatory device to prepare the skin (2×3 cm^2). Then, depilatory cream was applied to the prepared skin area to ensure complete removal of the hair on the back of the mice. From the day after depilation, each group of mice was administered once daily by gavage.
(§2) On Day 9 of administration in the aforementioned experiment, cyclophosphamide (abbreviated as CP) was intraperitoneally injected to each mouse in the model group (not administered with CE and/or BT), the CE (15 mg/kg) group, the CE (30 mg/kg) group, the BT (1 mg/kg) group, and the CE+BT (15+0.5 mg/kg) group to establish the AA model. The method for establishing the model is described in the literature: "Effect of CeO2 Nanoenzyme on Hair Growth of Mice with Cyclophosphamide-Induced Alopecia Areata", PENG Xinxin et al., J Shanxi Med Univ, Feb. 2024, Vol. 55, No. 2, p.192.
After the final administration (on Day 28), the length of dorsal hair of the mice in each group was measured using a vernier caliper. Subsequently, the regrown hair in the original depilated area was removed using a depilatory device, and was weighed using a balance. Table 2 Effects of CE, BT and CE+BT on hair length and hair weight in the mice with cyclophosphamide-induced alopecia areata

Test [2] has the same test system. Nature of the test: Preventive effect on hair loss in cyclophosphamide-induced alopecia areata (dorsal images). The class given is in vivo. To be noted: gavage, Day 7 after CP injection, versus model group. As to the method:
as §2
Whether the model has been successfully established was determined by observing the hair loss in each group of mice, wherein the onset of hair loss indicated the successful model establishment.
Images of the dorsal region of the mice were captured on Day 9 of administration (Day 0 after CP injection), Day 14 (Day 5after CP injection), and Day 16 (Day 7 after CP injection). In Figure 2, gavage administration was used for administering CE and/or BT to the mice in the CE (15 mg/kg) group, the CE (30 mg/kg) group, the BT (1 mg/kg) group, and the CE+BT (15+0.5 mg/kg) group; and intraperitoneal injection was used for administering CP to the mice in the model group, the CE (15 mg/kg) group, the CE (30 mg/kg) group, the BT (1 mg/kg) group, and the CE+BT (15+0.5 mg/kg) group. […]

For test [3], the system named is JAK3/STAT3 signaling pathway. The test is described as follows: Western blotting of p-JAK3/JAK3 and p-STAT3/STAT3 in mouse skin tissue. The class given is in vivo, mice. Conditions: Western blot gray values, versus model group. As to the method: The expression levels of p-JAK3/JAK3 and p-STAT3/STAT3 proteins were detected by Western blotting using the half of the skin samples that were stored in the freezer at -80°C as described in Example 2. • p-JAK3: purchased from Absin, Cat No.: abs139988; • JAK3: purchased from Absin, Cat No.: abs115170; • p-STAT3: purchased from Absin, Cat No.: abs130919; • STAT3: purchased from Absin, Cat No.: abs155916.
The mouse skin samples stored at -80°C were taken out. 50 mg of skin tissue was cut with surgical scissors from each sample and respectively placed into 2 mL EP tubes. 500 µL of RIPA lysis buffer (available from Servicebio, Cat No.: G2002-100ML) (containing 5µL of protease inhibitor PMSF, available from Servicebio, Cat No.: G2008-1ML) was added to each EP tube. The skin was then disrupted by a cell grinding rod that is inserted into the 2 mL EP tube. […]
The total protein concentration in the supernatant was determined using a BCA kit (G2026-200T, Servicebio) following the protocol in the instruction manual. […]
The previously prepared resolving gel and stacking gel were clamped onto the main body of the gel-casting apparatus, with the stacking gel on the top and the resolving gel on the bottom. […] The gel casting apparatus was then disassembled and placed in the transfer buffer (Cat No.: G2028-1L, available from Servicebio) to be ready for subsequent membrane transfer procedure. […]
In general terms: A western blot detects proteins with antibodies after separation by electrophoresis.

For test [4], the system named is C57/BL-6 mice. The test is described as follows: Hair growth of depilated mice after 9 days of gavage administration (dorsal images, hair score by IMAGE J). The class given is in vivo. To be noted: first 9 days after depilation. As to the method:
as §1
The substances to be administered were prepared as follows: The aqueous solution of 0.5% sodium carboxymethylcellulose: First, 0.5 g of sodium carboxymethylcellulose powder was added to 100 mL of distilled water, and then the mixture was placed in a water bath and heated at 60-70 °C. […]
Images of the dorsal region of the mice were captured at key time points of hair growth (i.e. Day 0 and Day 9), respectively. In addition, the gray values in the depilated areas on the dorsal region of the mice in Figure a were analyzed using IMAGE J software (National Institutes of Health, USA) to obtain hair scores. In Figure b, the hair scores represent the quantified gray values of the hair on the back skin of the mice.

`C[C@@H]1CC[C@H]2C(C)(C)[C@H]3C[C@@]12CC[C@@]3(C)O` [CE, cedrol]: the Hair length in test [1] (CE 15 mg/kg) is 5.98±1.22 mm; in test [1] (CE 30 mg/kg), 6.78±1.32 mm. Also, the Hair weight in test [1] (CE 15 mg/kg) turned out to be 35.38 ± 6.88 mg; in test [1] (CE 30 mg/kg), 43.51 ± 6.45 mg. The hair loss result in test [2] (CE 15 mg/kg) and in test [2] (CE 30 mg/kg) was “significantly better than that of the model group” throughout. Besides, the “relative viabilities of p-JAK3/JAK3 and p-STAT3/STAT3” value in test [3] (CE 15 mg/kg) and in test [3] (CE 30 mg/kg) was “significantly different from that in the model group” in each case. Also, the hair growth entry in test [4] (CE 15 mg/kg) and in test [4] (CE 30 mg/kg) was “significant hair growth” each time.

`CCS(=O)(=O)N1CC(CC#N)(n2cc(-c3ncnc4[nH]ccc34)cn2)C1` [BT, baricitinib]: in test [1] (BT 1 mg/kg), the Hair length is reported as 6.51±0.61 mm and the Hair weight stood at 38.62 ± 6.02 mg.
